Results on 13 molecules are retold here after patent US10780090B2, “Heteroaryl compounds useful as inhibitors of SUMO activating enzyme” (Millennium Pharmaceuticals, Inc., priority 2014, dated 2020).

The experiment addresses recombinant human SAE enzyme (Homo sapiens (Human), UniProt Q9UBT2). As to the kind of experiment: SAE HTRF enzyme assay. The class given is biochemical. Particulars: for Percent Inhibition: Concentration 0.111 μM; for IC50: class symbols A/B/C. The procedure, abridged:
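Human SAE (0.11 nM) with 0.5 μM ATP, 0.125 μM Sumo-Flag and 0.01 μM Ubc9-GST in HEPES pH 7.5, 5 mM MgCl2, 250 μM GSH; 105 min at 24 °C. Stopped with EDTA; HTRF read after 2 h with Eu-anti-Flag and APC-anti-GST. Percent inhibition or IC50 reported.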
In general terms: In TR-FRET formats the signal depends on donor and acceptor labels being close together.

Sequence of recombinant human SAE enzyme (Q9UBT2 whole entry): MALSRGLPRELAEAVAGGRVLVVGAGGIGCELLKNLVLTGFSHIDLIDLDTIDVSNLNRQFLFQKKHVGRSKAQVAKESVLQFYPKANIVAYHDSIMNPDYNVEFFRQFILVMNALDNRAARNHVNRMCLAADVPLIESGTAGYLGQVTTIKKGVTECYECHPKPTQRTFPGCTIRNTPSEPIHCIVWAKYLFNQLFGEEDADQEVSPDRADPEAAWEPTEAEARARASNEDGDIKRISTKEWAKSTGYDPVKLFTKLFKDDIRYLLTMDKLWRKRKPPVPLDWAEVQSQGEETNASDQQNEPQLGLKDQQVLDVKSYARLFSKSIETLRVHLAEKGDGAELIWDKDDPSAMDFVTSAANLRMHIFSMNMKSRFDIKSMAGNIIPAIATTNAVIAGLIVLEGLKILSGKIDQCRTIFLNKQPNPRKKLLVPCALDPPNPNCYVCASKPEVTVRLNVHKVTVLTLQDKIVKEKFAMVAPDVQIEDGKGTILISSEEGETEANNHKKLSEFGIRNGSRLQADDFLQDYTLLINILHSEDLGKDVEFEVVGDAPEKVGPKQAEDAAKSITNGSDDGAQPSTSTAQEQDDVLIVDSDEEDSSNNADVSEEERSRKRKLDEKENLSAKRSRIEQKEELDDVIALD
Sequence of recombinant human SAE enzyme (Q9UBE0 whole entry partner): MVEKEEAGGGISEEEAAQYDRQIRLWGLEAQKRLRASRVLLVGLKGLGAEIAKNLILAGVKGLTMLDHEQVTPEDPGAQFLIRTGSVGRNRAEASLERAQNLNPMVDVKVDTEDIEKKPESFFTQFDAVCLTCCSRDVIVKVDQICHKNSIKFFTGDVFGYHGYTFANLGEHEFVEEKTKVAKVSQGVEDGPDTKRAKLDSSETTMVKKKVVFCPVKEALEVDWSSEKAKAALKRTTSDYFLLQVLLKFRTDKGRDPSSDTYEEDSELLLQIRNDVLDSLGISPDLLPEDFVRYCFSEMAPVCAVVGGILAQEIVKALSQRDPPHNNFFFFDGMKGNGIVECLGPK

Broadly, the IC50 is the concentration needed to halve the response being measured. Regarding `Cc1sc(C(=O)c2cncnc2N[C@@H]2C[C@H](COS(N)(=O)=O)[C@@H](O)[C@@H]2F)cc1[C@H]1OCCc2ccc(Cl)cc21` (single isomer, unassigned) [I-264a, [(1R,2R,3R,4R)-4-{[5-({4-[(1S)-7-chloro-3,4-dihydro-1H-isochromen-1-yl]-5-methyl-2-thienyl}carbonyl)pyrimidin-4-yl]amino}-3-fluoro-2-hydroxycyclopentyl]methyl sulfamate or [(1R,2R,3R,4R)-4-{[5-({4-[(1R)-7-chloro-3,4-dihydro-1H-isochromen-1-yl]-5-methyl-2-thienyl}carbonyl)pyrimidin-4-yl]amino}-3-fluoro-2-hydroxycyclopentyl]methyl sulfamate], the “Percent Inhibition” value was determined as 33 and the IC50 lay in the range of 100 to 1000 nM.
The matching figures for `Cc1sc(C(=O)c2cncnc2N[C@@H]2C[C@H](COS(N)(=O)=O)[C@@H](O)[C@@H]2F)cc1[C@H]1OCCc2ccc(Cl)cc21` (single isomer, unassigned) [I-264b, [(1R,2R,3R,4R)-4-{[5-({4-[(1S)-7-chloro-3,4-dihydro-1H-isochromen-1-yl]-5-methyl-2-thienyl}carbonyl)pyrimidin-4-yl]amino}-3-fluoro-2-hydroxycyclopentyl]methyl sulfamate or [(1R,2R,3R,4R)-4-{[5-({4-[(1R)-7-chloro-3,4-dihydro-1H-isochromen-1-yl]-5-methyl-2-thienyl}carbonyl)pyrimidin-4-yl]amino}-3-fluoro-2-hydroxycyclopentyl]methyl sulfamate]: 98 and under 10 nM.
For `CN1Cc2ccc(Cl)cc2[C@@H]1c1csc(C(=O)c2cncnc2N[C@@H]2C[C@H](COS(N)(=O)=O)[C@@H](O)C2)c1` (single isomer, unassigned) [I-265a, [(1R,2S,4R)-4-{[5-({4-[(1R)-6-chloro-2-methyl-2,3-dihydro-1H-isoindol-1-yl]-2-thienyl}carbonyl)pyrimidin-4-yl]amino}-2-hydroxycyclopentyl]methyl sulfamate or [(1R,2S,4R)-4-{[5-({4-[(1S)-6-chloro-2-methyl-2,3-dihydro-1H-isoindol-1-yl]-2-thienyl}carbonyl)pyrimidin-4-yl]amino}-2-hydroxycyclopentyl]methyl sulfamate], the “Percent Inhibition” value is 99 and the IC50 is under 10 nM.
As to `CN1Cc2ccc(Cl)cc2[C@@H]1c1csc(C(=O)c2cncnc2N[C@@H]2C[C@H](COS(N)(=O)=O)[C@@H](O)C2)c1` (single isomer, unassigned) [I-265b, [(1R,2S,4R)-4-{[5-({4-[(1R)-6-chloro-2-methyl-2,3-dihydro-1H-isoindol-1-yl]-2-thienyl}carbonyl)pyrimidin-4-yl]amino}-2-hydroxycyclopentyl]methyl sulfamate or [(1R,2S,4R)-4-{[5-({4-[(1S)-6-chloro-2-methyl-2,3-dihydro-1H-isoindol-1-yl]-2-thienyl}carbonyl)pyrimidin-4-yl]amino}-2-hydroxycyclopentyl]methyl sulfamate], the “Percent Inhibition” value was 72 and the IC50 was 10 to 100 nM.
Take `NS(=O)(=O)OC[C@H]1C[C@@H](Nc2ncncc2C(=O)c2cc([C@@H]3OCCc4cccnc43)c(Cl)s2)C[C@@H]1O` (single isomer, unassigned) [I-266a, [(1R,2S,4R)-4-{[5-({5-chloro-4-[(8S)-5,8-dihydro-6H-pyrano[3,4-b]pyridin-8-yl]-2-thienyl}carbonyl)pyrimidin-4-yl]amino}-2-hydroxycyclopentyl]methyl sulfamate or [(1R,2S,4R)-4-{[5-({5-chloro-4-[(8R)-5,8-dihydro-6H-pyrano[3,4-b]pyridin-8-yl]-2-thienyl}carbonyl)pyrimidin-4-yl]amino}-2-hydroxycyclopentyl]methyl sulfamate]: the “Percent Inhibition” value is recorded as 41 and the IC50 fell in the range of 100 to 1000 nM.
Turning to `NS(=O)(=O)OC[C@H]1C[C@@H](Nc2ncncc2C(=O)c2cc([C@@H]3OCCc4cccnc43)c(Cl)s2)C[C@@H]1O` (single isomer, unassigned) [I-266b, [(1R,2S,4R)-4-{[5-({5-chloro-4-[(8S)-5,8-dihydro-6H-pyrano[3,4-b]pyridin-8-yl]-2-thienyl}carbonyl)pyrimidin-4-yl]amino}-2-hydroxycyclopentyl]methyl sulfamate or [(1R,2S,4R)-4-{[5-({5-chloro-4-[(8R)-5,8-dihydro-6H-pyrano[3,4-b]pyridin-8-yl]-2-thienyl}carbonyl)pyrimidin-4-yl]amino}-2-hydroxycyclopentyl]methyl sulfamate], the “Percent Inhibition” value was determined as 100 and the IC50 was under 10 nM.
Turning to `NS(=O)(=O)OC[C@H]1C[C@@H](Nc2ncncc2C(=O)c2cc([C@@H]3OCCc4ccc(F)cc43)cs2)C[C@@H]1O` (single isomer, unassigned) [I-267, [(1R,2S,4R)-4-{[5-({4-[(1R)-7-Fluoro-3,4-dihydro-1H-isochromen-1-yl]-2-thienyl}carbonyl)pyrimidin-4-yl]amino}-2-hydroxycyclopentyl]methyl sulfamate or [(1R,2S,4R)-4-{[5-({4-[(1S)-7-Fluoro-3,4-dihydro-1H-isochromen-1-yl]-2-thienyl}carbonyl)pyrimidin-4-yl]amino}-2-hydroxycyclopentyl]methyl sulfamate], the “Percent Inhibition” value amounted to 97 and the IC50 was under 10 nM.
Take `NS(=O)(=O)OC[C@H]1C[C@@H](Nc2ncncc2C(=O)c2cc([C@@H]3OCCc4ccc(F)cc43)cs2)C[C@@H]1O` (single isomer, unassigned) [I-267a, [(1R,2S,4R)-4-{[5-({4-[(1R)-7-fluoro-3,4-dihydro-1H-isochromen-1-yl]-2-thienyl}carbonyl)pyrimidin-4-yl]amino}-2-hydroxycyclopentyl]methyl sulfamate or [(1R,2S,4R)-4-{[5-({4-[(1S)-7-fluoro-3,4-dihydro-1H-isochromen-1-yl]-2-thienyl}carbonyl)pyrimidin-4-yl]amino}-2-hydroxycyclopentyl]methyl sulfamate]: the “Percent Inhibition” value is recorded as 65 and the IC50 fell in the range of 10 to 100 nM.
On to `NS(=O)(=O)OC[C@H]1C[C@@H](Nc2ncncc2C(=O)c2cc([C@@H]3OCCc4ccc(F)cc43)cs2)C[C@@H]1O` (single isomer, unassigned) [I-267b, [(1R,2S,4R)-4-{[5-({4-[(1R)-7-fluoro-3,4-dihydro-1H-isochromen-1-yl]-2-thienyl}carbonyl)pyrimidin-4-yl]amino}-2-hydroxycyclopentyl]methyl sulfamate or [(1R,2S,4R)-4-{[5-({4-[(1S)-7-fluoro-3,4-dihydro-1H-isochromen-1-yl]-2-thienyl}carbonyl)pyrimidin-4-yl]amino}-2-hydroxycyclopentyl]methyl sulfamate], for which the “Percent Inhibition” value was found to be 100 and the IC50 was under 10 nM.
Regarding `NS(=O)(=O)OC[C@H]1C[C@@H](Nc2ncncc2C(=O)c2cc([C@@H]3OCCc4ccc(Br)cc43)cs2)C[C@@H]1O` (single isomer, unassigned) [I-268a, [(1R,2S,4R)-4-{[5-({4-[(1R)-7-bromo-3,4-dihydro-1H-isochromen-1-yl]-2-thienyl}carbonyl)pyrimidin-4-yl]amino}-2-hydroxycyclopentyl]methyl sulfamate or [(1R,2S,4R)-4-{[5-({4-[(1S)-7-bromo-3,4-dihydro-1H-isochromen-1-yl]-2-thienyl}carbonyl)pyrimidin-4-yl]amino}-2-hydroxycyclopentyl]methyl sulfamate], the “Percent Inhibition” value is listed as 50 and the IC50 lay in the range of 100 to 1000 nM.
Regarding `NS(=O)(=O)OC[C@H]1C[C@@H](Nc2ncncc2C(=O)c2cc([C@@H]3OCCc4ccc(Br)cc43)cs2)C[C@@H]1O` (single isomer, unassigned) [I-268b, [(1R,2S,4R)-4-{[5-({4-[(1R)-7-bromo-3,4-dihydro-1H-isochromen-l-yl]-2-thienyl}carbonyl)pyrimidin-4-yl]amino}-2-hydroxycyclopentyl]methyl sulfamate or [(1R,2S,4R)-4-{([5-({4-[(1S)-7-bromo-3,4-dihydro-1H-isochromen-1-yl]-2-thienyl}carbonyl)pyrimidin-4-yl]amino}-2-hydroxycyclopentyl]methyl sulfamate], the “Percent Inhibition” value amounted to 102 and the IC50 was under 10 nM.
On to `Cc1sc(C(=O)c2cncnc2N[C@@H]2C[C@H](COS(N)(=O)=O)[C@@H](O)C2)cc1[C@@H]1OCCc2ccsc21` (single isomer, unassigned) [I-269a, [(1R,2S,4R)-4-{[5-({4-[(7S)-4,7-dihydro-5H-thieno[2,3-c]pyran-7-yl]-5-methyl-2-thienyl}carbonyl)pyrimidin-4-yl]amino}-2-hydroxycyclopentyl]methyl sulfamate or [(1R,2S,4R)-4-{[5-({4-[(7R)-4,7-dihydro-5H-thieno[2,3-c]pyran-7-yl]-5-methyl-2-thienyl}carbonyl)pyrimidin-4-yl]amino}-2-hydroxycyclopentyl]methyl sulfamate], for which the “Percent Inhibition” value turned out to be 101 and the half-maximal inhibitory concentration (IC50) is under 10 nM.
Turning to `Cc1sc(C(=O)c2cncnc2N[C@@H]2C[C@H](COS(N)(=O)=O)[C@@H](O)C2)cc1[C@@H]1OCCc2ccsc21` (single isomer, unassigned) [I-269b, [(1R,2S,4R)-4-{[5-({4-[(7S)-4,7-dihydro-5H-thieno[2,3-c]pyran-7-yl]-5-methyl-2-thienyl}carbonyl)pyrimidin-4-yl]amino}-2-hydroxycyclopentyl]methyl sulfamate or [(1R,2S,4R)-4-{[5-({4-[(7R)-4,7-dihydro-5H-thieno[2,3-c]pyran-7-yl]-5-methyl-2-thienyl}carbonyl)pyrimidin-4-yl]amino}-2-hydroxycyclopentyl]methyl sulfamate], the “Percent Inhibition” value stood at 95 and the IC50 was 10 to 100 nM.
